# Marks after values point to notes of the source that are not given here.
# Test system: mouse model of cuprizone demylelination
# Experiment: Remyelination in gray matter (hippocampus) via quantification of PLP, cuprizone/rapamycin mouse model
# Assay type: in vivo, C57BL/6 mice
# Conditions: 6 weeks treatment after 12 weeks cuprizone co-administered with rapamycin, RCI 10 U/kg
# Method: The hypothesis that repository corticotropin injection (RCI) accelerates remyelination in a mouse model of cuprizone demylelination was tested. C57BL/6 mice were fed 0.3% cuprizone co-administered with rapamycin for 12 weeks to induce demyelination and inhibit spontaneous remyelination. […] Mice were treated for another 6 weeks with RCI, triiodothyronine (T3, positive control), or vehicle (negative control). Remyelination was assayed in gray matter (hippocampus) via quantification of myelin proteolipid protein (PLP) and in white matter (corpus callosum) via p-Phenylenediamine (PPD) staining. […] Of note-increased remyelination was not observed at higher doses of RCI in this rodent model (data not shown).
compound,measurement,value
"N[C@@H](Cc1cc(I)c(Oc2ccc(O)c(I)c2)c(I)c1)C(=O)O [Positive Control, triiodothyronine]",Mean PLP (% Area Covered),40.8** % Area Covered

# From US20260014235A1, “METHODS OF PROMOTING REMYELINATION” (Mallinckrodt Pharmaceuticals Ireland Limited, priority 2019, published 2026)
